Results published in US20120289501A1, “Benzene-fused 6-membered oxygen-containing heterocyclic derivatives of bicyclic heteroaryls” (NOVARTIS AG, priority 2009, published 2012).

target: IGF1R (Homo sapiens, UniProt P08069); experiment: Cellular IGF-1R assay: inhibition of IGF1R phosphorylation in transduced Hek293 cells, capture ELISA (MSD); type: cell-based; parameters: Hek293 cells transduced with the corresponding receptors; expressed in transfected cells; host or cells: Hek293 (Hek293-IGF1R)
Experimental: In this assay the activity of the compounds of the invention against Insulin-like growth factor I (IGF-1) induced autophosphorylation of the IGF-IR is determined. The assay is conducted as follows: Compound-mediated inhibition of IGF1R and INSR phosphorylation in Hek293 cells transduced with the corresponding receptors is assessed in a capture ELISA format using the MSD (Meso Scale Discovery) platform. Briefly, 30′000 cells washed and diluted in starvation medium (DMEM high glucose supplemented with 0.1% BSA) are seeded in 90 μL per well into 96-well plates pre-coated with poly-D-lysine (0.1 mg/mL in PBS/0). After 24 h incubation at 37° C. and 5% CO2, dose-response effects are determined with 3-fold serial compound dilutions, starting at 10 μM. The final vehicle concentration is 0.1% DMSO in all wells. Following pre-incubation with compounds for 1 h, receptor phosphorylation is triggered by a 10 min exposure to 1.0 ng/μL IGF for Hek293-IGF1R cells, and 5.0 ng/μL insulin for Hek293-InsR cells. Cell lysis is achieved by addition of 80 μL MSD lysis buffer per aspirated well, incubation on ice for 20 min, and a freeze-thaw cycle. Target phosphorylation is then assessed by transferring volumes corresponding to approx. 6 μg Hek293-IGF1R or 0.6 μg Hek293-InsR lysates to MSD assay plates pre-coated with total-IGF1R or total-InsR Abs, respectively. After incubation for 2 h at rt, wells are exposed for 1 hr to a rabbit monoclonal antibody (CST #3024, 1:1000) detecting pIGF1R(Tyr1135/1136) as well as pINSR(Tyr1150/1151). Immune complexes are detected by a SULFO-Tag™-coupled anti-rabbit IgG antibody in the presence of 150 μL MSD read-buffer. Light emission at 620 nm triggered by application of electric current is recorded on a MSD SectorImager 6000. Acquired raw data (mean Ru-ECL units) are processed in an Excel analysis template. The plate blank (MSD lysis buffer) is subtracted from all data points. The effect of a particular test compound concentration on receptor phosphorylation is expressed relative to the window defined by ligand-stimulated vs unstimulated control cells (set as 100%). IC50 values [nM] are determined using 4-parametric curve-fitting (XLfit software, V4.3.2). Alternatively, the assay can be conducted with a slightly different format; Compound-mediated inhibition of IGF-1R and InsR phosphorylation in HEK293 cells overexpressing the corresponding receptors were assessed by quantitative Western blot using an Odyssey infrared imager as readout.
Compound-mediated inhibition of IGF1R and INSR phosphorylation in Hek293 cells transduced with the corresponding receptors is assessed in a capture ELISA format using the MSD (Meso Scale Discovery) platform. Briefly, 30′000 cells washed and diluted in starvation medium (DMEM high glucose supplemented with 0.1% BSA) are seeded in 90 μL per well into 96-well plates pre-coated with poly-D-lysine (0.1 mg/mL in PBS/O). After 24 h incubation at 37° C. and 5% CO2, dose-response effects are determined with 3-fold serial compound dilutions, starting at 10 μM. The final vehicle concentration is 0.1% DMSO in all wells. Following pre-incubation with compounds for 1 h, receptor phosphorylation is triggered by a 10 min exposure to 1.0 ng/μL IGF for Hek293-IGF1R cells, and 5.0 ng/μL insulin for Hek293-InsR cells. Cell lysis is achieved by addition of 80 μL MSD lysis buffer per aspirated well, incubation on ice for 20 min, and a freeze-thaw cycle. Target phosphorylation is then assessed by transferring volumes corresponding to approx. 6 μg Hek293-IGF1R or 0.6 μg Hek293-lnsR lysates to MSD assay plates pre-coated with total-IGF1R or total-lnsR Abs, respectively. After incubation for 2 h at rt, wells are exposed for 1 hr to a rabbit monoclonal antibody (CST #3024, 1:1000) detecting pIGF1R(Tyr1135/1136) as well as pINSR(Tyr1150/1151). Immune complexes are detected by a SULFO-Tag™-coupled anti-rabbit IgG antibody in the presence of 150 μL MSD read-buffer. […]

IGF1R, sequence (P08069 31-1367): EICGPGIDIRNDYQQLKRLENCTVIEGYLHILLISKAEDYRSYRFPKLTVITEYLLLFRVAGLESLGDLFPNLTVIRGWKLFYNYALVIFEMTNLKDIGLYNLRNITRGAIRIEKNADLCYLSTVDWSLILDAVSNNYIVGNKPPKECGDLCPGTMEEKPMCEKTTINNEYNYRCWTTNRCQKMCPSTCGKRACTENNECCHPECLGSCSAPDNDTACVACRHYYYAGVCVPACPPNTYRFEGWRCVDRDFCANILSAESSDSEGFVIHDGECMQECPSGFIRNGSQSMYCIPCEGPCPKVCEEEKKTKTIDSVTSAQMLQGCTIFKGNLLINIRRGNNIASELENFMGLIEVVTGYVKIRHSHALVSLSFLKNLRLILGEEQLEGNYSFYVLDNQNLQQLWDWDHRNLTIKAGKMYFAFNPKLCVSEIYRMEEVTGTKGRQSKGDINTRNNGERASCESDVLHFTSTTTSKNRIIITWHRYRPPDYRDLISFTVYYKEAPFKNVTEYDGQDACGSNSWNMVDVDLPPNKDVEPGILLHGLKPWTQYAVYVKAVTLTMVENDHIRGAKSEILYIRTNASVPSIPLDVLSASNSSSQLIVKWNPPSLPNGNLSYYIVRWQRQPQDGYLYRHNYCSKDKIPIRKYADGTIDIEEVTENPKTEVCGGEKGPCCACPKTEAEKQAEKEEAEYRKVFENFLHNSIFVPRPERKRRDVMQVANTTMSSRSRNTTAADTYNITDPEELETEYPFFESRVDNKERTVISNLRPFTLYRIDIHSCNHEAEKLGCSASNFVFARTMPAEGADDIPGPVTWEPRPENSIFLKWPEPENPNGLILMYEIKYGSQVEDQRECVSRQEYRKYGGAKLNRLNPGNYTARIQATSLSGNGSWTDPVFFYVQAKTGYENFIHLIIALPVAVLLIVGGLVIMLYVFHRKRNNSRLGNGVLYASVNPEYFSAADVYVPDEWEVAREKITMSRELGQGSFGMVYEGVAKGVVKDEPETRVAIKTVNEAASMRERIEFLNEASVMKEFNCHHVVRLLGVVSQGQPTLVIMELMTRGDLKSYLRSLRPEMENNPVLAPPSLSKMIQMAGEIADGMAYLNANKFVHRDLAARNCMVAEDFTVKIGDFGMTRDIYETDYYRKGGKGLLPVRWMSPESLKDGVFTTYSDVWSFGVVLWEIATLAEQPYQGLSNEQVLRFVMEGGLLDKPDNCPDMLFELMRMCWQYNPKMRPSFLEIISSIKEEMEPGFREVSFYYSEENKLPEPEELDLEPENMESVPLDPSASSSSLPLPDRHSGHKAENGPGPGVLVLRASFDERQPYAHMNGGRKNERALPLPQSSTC

| IC50 | SMILES |
| --- | --- |
| 76 nM | Nc1ncnc2c1c(-c1ccc3c(c1)OC(c1ccccc1)CC3)cn2[C@H]1C[C@@]2(COC(=O)O2)C1 (some centres unmarked) [Example 43, (E)-2-[4-Amino-5-(2-phenyl-chroman-7-yl)-pyrrolo[2,3-d]pyrimidin-7-yl]-5,7-dioxa-spiro[3.4]octan-6-one] |
| 39 nM | NC[C@H]1C[C@@H](n2cc(-c3ccc4c(c3)OC(c3ccccc3)CC4)c3c(N)ncnc32)C1 (mixture of isomers) [Example 13, (R,S)-7-(cis-3-Aminomethyl-cyclobutyl)-5-(2-phenyl-chroman-7-yl)-7H-pyrrolo[2,3-d]pyrimidin-4-ylamine] |
| 179 nM | Nc1nccn2c1c(-c1ccc3c(c1)O[C@@H](c1ccccc1)C=C3)nc2[C@H]1C[C@@H](CO)C1 (relative stereo) [Example 22, (R,S)-{cis-3-[8-Amino-1-(2-phenyl-2H-chromen-7-yl)-imidazo[1,5-a]pyrazin-3-yl]-cyclobutyl}-methanol] |
| 17 nM | Nc1ncnc2c1c(-c1ccc3c(c1)OC(C1CCCO1)CC3)cn2C1CC(CN2CC3CC2CS3(=O)=O)C1 (mixture of isomers) [Example 67, 7-[cis-3-((S,S)-2,2-dioxo-2λ6-thia-5-aza-bicyclo[2,2,1]hept-5-ylmethyl)-cyclobutyl]-5-[2-cis-(tetrahydro-furan-2-yl-chroman-7-yl)-7H-pyrrolo[2,3-d]pyrimidin-4-ylamine] |
| 11 to 22 nM | Nc1ncnc2c1c(-c1ccc3c(c1)OC(c1ccccc1)CC3)cn2[C@H]1C[C@@H](CO)C1 (mixture of isomers) [Example 1, (R,S)-{cis-3-[4-Amino-5-(2-phenyl-chroman-7-yl)-pyrrolo[2,3-d]pyrimidin-7-yl]-cyclobutyl}-methanol] |
| 39 nM | Nc1ncnc2c1c(-c1ccc3c(c1)OC(C1CCCO1)CC3)cn2[C@H]1CC[C@@H](N2CCS(=O)(=O)CC2)CC1 (mixture of isomers) [Example 65, (±)-7-[cis-4-(1,1-dioxo-1λ6-thiomorpholin-4-yl)-cyclohexyl]-5-[2-cis-(tetrahydro-furan-2-yl)chroman-7-yl]-7H-pyrrolo[2,3-d]pyrimidin-4-ylamine] |
| 46 nM | Nc1ncnc2c1c(-c1ccc3c(c1)OC(c1ccccc1)CC3)cn2C1CC(CN2CCC(O)CC2)C1 (centres unmarked) [Example 37, 1-{3-[4-Amino-5-(2-phenyl-chroman-7-yl)-pyrrolo[2,3-d]pyrimidin-7-yl]-cyclobutylmethyl}-piperidin-4-ol] |
| 346 nM | NC(=O)[C@@H]1CCCN1C[C@H]1C[C@@H](c2nc(-c3ccc4c(c3)OC(c3ccccc3)CC4)c3c(N)nccn32)C1 (mixture of isomers) [Example 4, 1-{cis-3,8-Amino-1-((R)-2-phenyl-chroman-7-yl)-imidazo[1,5-a]pyrazin-3-yl]-cyclobutylmethyl}-(S)-pyrrolidine-2-carboxylic acid amide and 1-{cis-3-[8-amino-1-((S)-2-phenyl-chroman-7-yl)-imidazo[1,5-a]pyrazin-3-yl]-cyclobutylmethyl}-(S)-pyrrolidine-2-carboxylic acid amide] |
| 548 nM | Nc1ncnc2c1c(-c1ccc3c(c1)OC(c1ccccn1)CC3)cn2[C@H]1C[C@@](O)(CO)C1 (mixture of isomers) [Example 56, (±)-(E)-3-(4-amino-5-(2-(pyridin-2-yl)chroman-7-yl)-7H-pyrrolo[2,3-d]pyrimidin-7-yl)-1-(hydroxymethyl)cyclobutanol] |
| 59 nM | Nc1ncnc2c1c(-c1ccc3c(c1)OC(C1CCCO1)CC3)cn2[C@H]1CC[C@@H](N2CCS(=O)(=O)CC2)CC1 (mixture of isomers) [Example 64, (±)-7-[cis-4-(1,1-dioxo-1λ6-thiomorpholin-4-yl)-cyclohexyl]-5-[2-trans-(tetrahydro-furan-2-yl)chroman-7-yl]-7H-pyrrolo[2,3-d]pyrimidin-4-ylamine] |
| 55 nM | Nc1ncnc2c1c(-c1ccc3c(c1)OC(C1CCCO1)CC3)cn2C1CC(O)(CO)C1 (single isomer, unassigned) [Example 35] |
| 183 nM | Nc1ncnc2c1c(-c1ccc3c(c1)OC(C1CCCO1)CC3)cn2C1CC(O)(CO)C1 (single isomer, unassigned) [Example 32, (I)-(E)-3-{4-Amino-5-[2-(tetrahydro-furan-2-yl)-chroman-7-yl]-pyrrolo[2,3-d]pyrimidin-7-yl}-1-hydroxymethyl-cyclobutanol] |
| 3 nM | Nc1ncnc2c1c(-c1ccc3c(c1)OC(c1ccccc1)CC3)cn2[C@H]1C[C@@H](CN2CCS(=O)(=O)CC2)C1 (mixture of isomers) [Example 6, (R,S)-7-[cis-3-(1,1-Dioxo-thiomorpholin-4-ylmethyl)-cyclobutyl]-5-(2-phenyl-chroman-7-yl)-7H-pyrrolo[2,3-d]pyrimidin-4-ylamine] |
| 202 nM | Nc1ncnc2c1c(-c1ccc3c(c1)OC1(CCCCC1)CC3)cn2[C@H]1C[C@@H](CN2CCS(=O)(=O)CC2)C1 [Example 53, 7-(cis-3-(1,1-dioxo-thiomorpholin-4-ylmethyl)cyclobutyl)-5-(spiro[chroman-2,1′-cyclohexane]-7-yl)-7H-pyrrolo[2,3-d]pyrimidin-4-amine] |
| 26 nM | Cc1nccn1C[C@H]1C[C@@H](c2nc(-c3ccc4c(c3)OC(c3ccccc3)CC4)c3c(N)nccn32)C1 (mixture of isomers) [Example 7, (R,S)-3-[cis-3-(2-Methyl-imidazol-1-ylmethyl)-cyclobutyl]-1-(2-phenyl-chroman-7-yl)-imidazo[1,5-a]pyrazin-8-ylamine] |
| 272 to 338 nM | Nc1ncnc2c1c(-c1ccc3c(c1)OC(c1ccccc1)CC3)cn2C1CC(O)(CO)C1 (single isomer, unassigned) [Example 42, (Z)-3-K-Amino-5-(2-phenyl-chroman-7-yl)-pyrrolo[2,3-d]pyrimidin-7-yl]-1-hydroxymethyl-cyclobutanol] |
| 4 to 5 nM | Nc1ncnc2c1c(-c1ccc3c(c1)OC(C1CCCO1)CC3)cn2C1CC(CN2CCS(=O)(=O)CC2)C1 (single isomer, unassigned) [Example 30, (I)-7-[cis-3-(1,1-Dioxo-1-thiomorpholin-4-ylmethyl)-cyclobutyl]-5-[2-(tetrahydro-furan-2-yl)-chroman-7-yl]-7H-pyrrolo[2,3-d]pyrimidin-4-ylamine] |
| 179 nM | Nc1ncnc2c1c(-c1ccc3c(c1)OC(c1ccccc1)=CC3)cn2[C@H]1C[C@@H](CN2CCS(=O)(=O)CC2)C1 [Example 20, 7-[cis-3-(1,1-Dioxo-1-thiomorpholin-4-ylmethyl)-cyclobutyl]-5-(2-phenyl-4H-chromen-7-yl)-7H-pyrrolo[2,3-d]pyrimidin-4-ylamine] |
| 88 nM | Nc1ncnc2c1c(-c1ccc3c(c1)OC(c1ccccc1)CC3)cn2[C@H]1C[C@@H](O)C1 (relative stereo) [Example 48, cis-3-[4-Amino-5-(2-phenyl-chroman-7-yl)-pyrrolo[2,3-d]pyrimidin-7-yl]-cyclobutanol] |
| 96 nM | Nc1ncnc2c1c(-c1ccc3c(c1)OC(c1ccccc1)CC3)cn2[C@H]1C[C@H](O)C1 (relative stereo) [Example 49, trans-3-[4-Amino-5-(2-phenyl-chroman-7-yl)-pyrrolo[2,3-d]pyrimidin-7-yl]-cyclobutanol] |
